The target in one test is Dihydrofolate reductase (Lacticaseibacillus casei, UniProt P00381). Briefly: Inhibitory concentration against Lactobacillus casei Dihydrofolate reductase.
The target of test [1] is T1, Bifunctional dihydrofolate reductase-thymidylate synthase (Toxoplasma gondii, UniProt Q07422).
T1 sequence (Q07422 whole entry): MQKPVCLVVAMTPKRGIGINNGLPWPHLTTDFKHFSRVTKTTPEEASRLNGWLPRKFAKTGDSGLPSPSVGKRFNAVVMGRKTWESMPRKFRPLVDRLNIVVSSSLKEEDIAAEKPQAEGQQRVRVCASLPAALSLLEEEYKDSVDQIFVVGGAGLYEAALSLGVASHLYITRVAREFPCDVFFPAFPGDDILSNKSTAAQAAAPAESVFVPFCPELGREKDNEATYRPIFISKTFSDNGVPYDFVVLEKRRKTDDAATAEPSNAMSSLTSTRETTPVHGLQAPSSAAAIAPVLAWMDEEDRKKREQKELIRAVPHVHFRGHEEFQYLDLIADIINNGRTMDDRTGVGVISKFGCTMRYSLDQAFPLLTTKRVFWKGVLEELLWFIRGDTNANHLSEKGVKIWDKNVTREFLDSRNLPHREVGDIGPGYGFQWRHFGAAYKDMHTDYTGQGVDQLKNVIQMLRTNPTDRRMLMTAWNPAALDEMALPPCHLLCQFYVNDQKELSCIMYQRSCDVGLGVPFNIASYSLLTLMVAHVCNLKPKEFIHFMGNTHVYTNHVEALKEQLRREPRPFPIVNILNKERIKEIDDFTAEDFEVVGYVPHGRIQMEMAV
Briefly: Inhibitory concentration against Toxoplasma gondii Dihydrofolate reductase.

Molecules are shown by their SMILES.

As a reminder, the IC50 is the concentration that gives 50% inhibition. Read a low IC50 as greater potency in that assay.

Chain of Dihydrofolate reductase (P00381 whole entry): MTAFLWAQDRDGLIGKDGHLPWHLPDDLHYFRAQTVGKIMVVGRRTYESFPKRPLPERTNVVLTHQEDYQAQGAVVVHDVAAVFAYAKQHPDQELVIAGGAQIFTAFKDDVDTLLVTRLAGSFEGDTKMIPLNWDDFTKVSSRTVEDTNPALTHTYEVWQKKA

As to `C/C(=C\c1coc2nc(N)nc(N)c12)c1ccc(C(=O)N[C@@H](CCC(=O)O)C(=O)O)cc1`, the IC50 (against Dihydrofolate reductase; in test [1]) was 4.4 µM in each case.

The values are drawn from BindingDB's records for doi:10.1021/jm000130i (Duquesne University, 2000).
